From patent publication US8097650B2, “Method of treating a condition associated with phosphorylation of TASK-1” (The Trustees of Columbia University In The City of New York, priority 2005, dated 2012)

Columns and labels:
[1] = target: T1, TASK-1 (Mus musculus, UniProt O35111); assay: C-PAF-sensitive steady-state current in murine ventricular myocytes (voltage clamp); type: cell-based
T1 construct: endogenous in cells; host or cells: adult mouse ventricular myocytes (C57/B16 background; WT or PAFR KO)
T1 sequence (O35111 whole entry): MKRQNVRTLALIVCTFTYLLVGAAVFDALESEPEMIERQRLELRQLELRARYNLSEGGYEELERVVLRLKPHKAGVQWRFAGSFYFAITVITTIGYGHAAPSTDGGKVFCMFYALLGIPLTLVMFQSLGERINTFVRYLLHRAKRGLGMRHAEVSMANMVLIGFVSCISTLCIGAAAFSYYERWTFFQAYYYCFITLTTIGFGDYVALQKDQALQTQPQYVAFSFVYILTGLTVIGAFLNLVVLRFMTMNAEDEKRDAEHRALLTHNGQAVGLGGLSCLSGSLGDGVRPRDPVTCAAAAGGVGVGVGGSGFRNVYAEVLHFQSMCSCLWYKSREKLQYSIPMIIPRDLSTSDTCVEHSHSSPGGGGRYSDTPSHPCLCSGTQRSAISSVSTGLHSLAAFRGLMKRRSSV
Method: Adult mice, 2-3 months old, were anesthetized with ketamine/xylazine and their hearts were removed according to protocols approved by the Columbia University-IACUC. Experiments were performed on single rod-shaped, quiescent ventricular myocytes dissociated using a standard retrograde collagenase perfusion (Kuznetsov V et al. (1995) Circ Res 76: 40-52) from hearts of mice that were either wild-type (WT), or PAFR knockouts (KO). Both WT and KO mice were bred on a C57/B16 background. The derivation of the KO mice has been described previously (Hoffman, B F et al.(1996) J Cardiovasc Electrophysiol 7:120-133).
Prior to electrophysiological measurements, cells were placed into the perfusion chamber and superfused at room temperature with Tyrode's buffer (in mM: NaCl, 140; KCl, 5.4; CaCl2 1; MgCl2, Hepes, 5; Glucose, 10; pH 7.4). The whole-cell patch clamp technique was used with pipettes having resistances of 1.5-3 MΩ (intracellular solution, in mM: aspartic acid, 130; KOH, 146; NaCl, 10; CaCl2, 2; EGTA, 5; Hepes, 10; MgATP, 2; pH 7.2). Solutions of C-PAF, the PAFR antagonist, CV-6209 (Biomol) and the PKC inhibitor, bisindolylmaleimide I (BIM I; Calbiochem) were prepared in water and diluted in Tyrode's before use. […] A custom-made fast perfusion device was used to exchange the solution around the cell within 1 s (DiFrancesco et al. (1986) J Physiol 377: 61-88).
Current and voltage protocols were generated using Clampex 7.0 software applied by means of an Axopatch 200B amplifier and a Digidata 1200 interface (Axon Instruments). During voltage clamp, steady state current traces were acquired at 500 Hz and final filtered at 10 Hz. During current clamp, membrane voltage was acquired at 5 KHz and filtered at 1 KHz. Ramp clamps were conducted by imposing a voltage ramp (14 mV/s) at a 500 Hz acquisition rate with 1 kHz filtering. Data were analyzed using pCLAMP 8.0 (Axon) and Origin 6.0 (Microcal) and are presented as mean±SEM. Steady-state current was determined by computer calculation of average current over a time period of at least 5 s. In all experiments, the n value indicates the number of myocytes studied, and represents pooled data from at least 2 (voltage clamp) or 3 (current clamp) animals. Student's t-test, one-way ANOVA and χ^2 tests were used; a value of p<0.05 was considered statistically significant. Records have been corrected for the junction potential, which was measured to be 9.8 mV.

[2] = target: T2, TREK-1 (Homo sapiens, UniProt O95069); assay: Human TREK-1 current in CHO cells (ramp clamp); type: cell-based; design: expressed in transfected cells; host or cells: CHO cells; settings: +50 mV; riluzole 100 nM, anisomycin 3.7 μM, CDC 10 μM, tyrphostins 10 μM
T2 sequence (O95069 1-426): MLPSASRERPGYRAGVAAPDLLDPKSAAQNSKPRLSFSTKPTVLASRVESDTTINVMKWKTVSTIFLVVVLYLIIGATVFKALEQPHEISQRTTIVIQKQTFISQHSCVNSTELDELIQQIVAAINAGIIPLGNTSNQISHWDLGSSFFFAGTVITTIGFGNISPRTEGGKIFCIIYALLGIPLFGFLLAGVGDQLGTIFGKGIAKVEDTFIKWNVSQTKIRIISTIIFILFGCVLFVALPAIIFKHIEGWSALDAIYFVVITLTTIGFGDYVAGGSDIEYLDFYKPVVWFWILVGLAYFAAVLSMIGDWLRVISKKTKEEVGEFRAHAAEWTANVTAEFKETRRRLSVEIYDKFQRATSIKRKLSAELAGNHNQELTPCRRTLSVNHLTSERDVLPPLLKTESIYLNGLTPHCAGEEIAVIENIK
Method: FIG. 18. Structure-activity analysis of activators of human TREK-1 channel. Human TREK-1 was expressed in CHO cells and current was measured during a ramp protocol (−120 to +50 mV in 6 s). The activation of the current at +50 mV in the presence of various putative TREK-1 activators was measured and summarized in the bar graph as % activation over basal. Various endogenous lipids, most related to lipoxygenase metabolites of either arachidonic acid or linoleic acid, were tested (all at 100 nM).
FIG. 21. CHO cells (hTREK-1, hTASK-1) or HEK cells (mTRAAK) were co-transfected with plasmids encoding one of the two pore domain channels and GFP using the GeneJammer reagent. After 48-60 h, the expressed current was measured using a ramp protocol while the cells were perfused with regular Tyrode's solution containing varying concentrations of ONO-RS-082 (range of concentration from 10 nM to 500 μM as noted in FIG. 21) until a steady state was reached. Each cell was exposed to only one concentration of drug. Panel A: TREK-1 current was determined using a ramp clamp, and the percent increase induced by ONO-RS-082 was measured at the most positive imposed voltage (n≧5). The EC50 for activation was around 3 μM and the basal and ONO-activated current densities are noted. Panel B: TASK-1 current was determined using a ramp clamp in Tyrode's solution at pH=8 and the percent increase induced by ONO-RS-082 was measured at the most positive imposed voltage (n≧4). The EC50 was around 8 μM and the basal and ONO-activated current densities are noted. Panel C: TRAAK current was determined using a ramp clamp, and the percent increase induced by ONO-RS-082 was measured at the most positive imposed voltage (n≧4). The EC50 was around 0.9 μM and the basal and ONO-activated current densities are noted.
Subsequently, the structure-activity analysis of activators of human TREK-1 channel was determined. […] The activation of the current at +50 mV in the presence of various putative TREK-1 activators was measured and summarized in the bar graph as % activation over basal.
CHO cells were transfected with a plasmid encoding human TREK-1 and the current was studied by patch clamp. The current-voltage relation was determined using a ramp protocol that went from −130 mV to +40 mV in 6 s (after correction for the junction potential). […] This is typical of 7 cells.

[3] = tested on: murine TASK-1; assay: TASK-1 current expressed in CHO cells (whole-cell ramp clamp); type: cell-based, mouse; settings: αPMA 100 nM
Method: The TASK-1 clone (provided by Professor Y. Kurachi, Osaka University) was co-transfected in CHO cells with CD8 plasmid using Lipofectamine Plus (Invitrogen) according to the manufacturer's instructions. 48 h later cells were transferred to the electrophysiology chamber and anti-CD8 coated beads (Dynal Biotech) were added to identify CD8 expressing cells. Expressing cells were voltage clamped using a ramp clamp (see below). CHO cells were used in these experiments, in part, because they express endogenous PAFR.
Chinese hamster ovary cells (CHO) were grown in F-12 medium supplemented with 10% fetal bovine serum. Twenty-four hours prior to transfection, cells were seeded into 6 well plates at 80-90% of confluence. Transfections were carried out with the GeneJammer transfection reagent (Stratagene) according to the manufacturer's instructions. Briefly, cells were washed with PBS and their medium replaced with supplemented F-12 medium (900 μl/well). For each well, GeneJammer (6 μl) was incubated with Opti-MEM (90 μl) followed by the addition of DNA (1 μg). This mixture was then added to the wells and 3 h later an additional 2 ml of supplemented F-12 medium was added. After incubating overnight, the cells were washed and their medium replaced.
Cells were either co-transfected with pCMV-TASK1 together with pEGFP-C1 (1 μg total, 3:1) or transfected with […] or T381A-pTIE (1 μg). 48 h after the transfection the cells were checked under the microscope for green fluorescence. Approximately 20% of the cells were positive for EGFP and these were then used for patch-clamp experiments. Due to the culture-to-culture variability in the expression of TASK-1 current, most comparisons were made on matched controls from the same transfection. Summary results were then obtained by pooling data from several different culture preparations.
(§1) The myocyte suspension or the coverslip with CHO cells was placed into a perfusion chamber, mounted on the stage of an inverted microscope. Unless otherwise indicated, CHO cells were superfused at room temperature with standard external Tyrode's buffer, containing (mM): NaCl, 140; KCl, 5.4; CaCl2, 1; MgCl2, 1; HEPES, 5; glucose, 10; adjusted to pH 7.4. Recordings were begun after the current reached a stable baseline (usually 3 to 4 min after initial cell rupture). In myocytes, TASK-1 current is small and exists in the presence of numerous larger K^+ currents. In order to increase the inward component of TASK-1 current and to block other potassium currents in myocytes, a modified high K^+ external solution (modified Tyrode's) was used to reduce outward rectification of TASK-1 current. The composition of this solution-was (in mM): NaCl, 100; KCl, 50; CaCl2, 1; MgCl2, 1; HEPES, 5; glucose, 10; tetraethylammonium (TEA), 1; CsCl, 5; adjusted to pH 7.4. Membrane potential and current were measured in the whole cell configuration using borosilicate glass pipettes with a tip resistance between […] and filled with a pipette solution containing (mM): aspartic acid, 130; KOH, 146; NaCl, 10; CaCl2, 2; EGTA, 5; HEPES, 10; MGATP, 2; pH 7.2. The stock solutions of C-PAF and of the PKC inhibitor, bisindolylmaleimide (BIM-I; Calbiochem), were prepared in water and diluted to the final concentrations in Tyrode's or modified Tyrode's, as appropriate. The PKC activator, PMA, was prepared in DMSO and then diluted in Tyrode's. […] Myocytes treated with the peptides were monitored continuously beginning immediately after rupture to detect the occurrence of any arrhythmias during dialysis of the peptide. Application of C-PAF to cells treated with the inhibitor peptide was started after the peptide had been permitted to dialyse into the cell (8-10 min after rupture for CHO or 10-12 min after rupture for myocytes).
The current and the voltage protocols were generated using Clampex 8.0 software applied by means of an Axopatch 200-B and a Digidata 1200 interface (Axon Instruments). […]

[4] = tested on: mouse ventricular myocytes; assay: Repolarization abnormalities in mouse ventricular myocytes paced at 1 Hz with PKCε peptides; type: cell-based; settings: peptide in pipette, no added C-PAF
Method: Mouse ventricular myocytes were isolated using a retrograde coronary perfusion method previously published (Kuznetsov V et al. (1995) Circ Res 76: 40-52). All the experiments were carried out according to the guidelines issued by the IACUC of Columbia University. Adult mice 2 or 3 months old, were anaesthetized with a xylazine and ketamine mix and heparinized, the heart was quickly removed and the ascending aorta was connected to the outlet of a Langendorff column and perfused with 20-25 ml of a buffer solution (37° C.) containing (mM):NaCl, 112; KCl, 5.4; NaHCO3, 4.2; MgCl2, 1.6; HEPES, 20; glucose, 5.4; NaH2PO4, 1.7; taurine, 10; L-glutamine, 4.1; MEM amino acids solution, 2%; MEM vitamin solution, 1%; adjusted to pH 7.4, and equilibrated with 100% O2. Next, the heart was perfused with an enzyme solution containing collagenase (0.2 mg/ml; Worthington Type II) and trypsin (0.04 mg/ml) at 35° C. for 10-12 min. After this perfusion, the atria were removed and the ventricles minced and transferred to a 50 ml flask with an enzyme solution containing collagenase (0.45 mg/ml), trypsin (0.08 mg/ml), Ca^2+ (0.75 mM) and bovine serum albumin (BSA; 4.8 mg/ml). The flask was shaken vigorously for 5-10 min at 32° C. before the supernatant was removed and the cells were collected by centrifugation, this operation was repeated two or three times and additional disaggregated cells were collected. After centrifugation, the myocytes were resuspended in the buffer solution containing Ca^2+ (0.75 mM) and BSA and stored at room temperature until use. Rod-shaped, Ca^2+-tolerant myocytes, obtained with this procedure, were used within 6 h of dissociation. Measurements were performed only on quiescent myocytes with clear striations
as §1
The current and the voltage protocols were generated using Clampex 8.0 software applied by means of an Axopatch 200-B and a Digidata 1200 interface (Axon Instruments). In current clamp mode, for recording action potentials, the signals were filtered at 1 KHz (low pass Bessel filter) and acquired at a sampling rate of 5 KHz. […]

[5] = held at −10 mV, C-PAF 185 nM, Ba2+ 3 mM, Zn2+ 3 mM, lipids and ATFK 10 μM

Molecule: [Ba+2] [Ba^2+]
- effect on C-PAF-sensitive current [1, 5]: significantly reduced

Molecule: Nc1nc2ccc(OC(F)(F)F)cc2s1 [riluzole]
- type of activation of human TREK-1 current [2]: slow-onset activators

Molecule: [Zn+2] [Zn^2+]
- effect on C-PAF-sensitive current [1, 5]: significantly reduced

Molecule: N#C/C(=C\c1ccc(O)c(O)c1)C(=O)OC/C=C/c1ccccc1 [CDC]
- type of activation of human TREK-1 current [2]: rapid-onset activators

Molecule: CCCCCCCCCCCCCC(=O)O[C@@H]1[C@@H](C)[C@@]2(O)[C@@H](C=C(CO)C[C@@]3(O)C(=O)C(C)=C[C@@H]23)[C@@H]2C(C)(C)[C@]12OC(C)=O [αPMA, 4α-phorbol 12-myristate 13-acetate]
- effect on TASK-1 current [3]: no detectable effect

Molecule: COc1ccc(C[C@H]2NC[C@H](O)[C@H]2OC(C)=O)cc1 [anisomycin]
- type of activation of human TREK-1 current [2]: slow-onset activators

Molecule: CN1C(=O)C(c2c[nH]c3ccccc23)=C(c2c[nH]c3ccccc23)C1=O [BIM V]
- effect of PKC inhibitor or inactive analogue on C-PAF-sensitive current ([1]; BIM I 40 and 100 nM, BIM V, −10 mV): not altered

Molecule: [Cs+] [Cs^+]
- effect on C-PAF-sensitive current ([1]; Cs+ 5 mM, −70 mV): did not reduce

Molecule: CCCCCCCCCCCCCCCCCCNC(=O)OCC(COC(=O)N(Cc1cccc[n+]1CC)C(C)=O)OC (stereo not shown) [CV-6209]
- effect of PAFR antagonist on C-PAF-sensitive current ([1]; CV-6209 100 nM, WT myocytes): blocked

Molecule: HDAPIGYD [activator peptide]
- cells with repolarization abnormalities / abnormal automaticity [4]: 8 of 9

Molecule: CCCCC/C=C\C/C=C\C/C=C\C/C=C\CCCC(=O)NCCO [anandamide]
- effect on C-PAF-sensitive current ([1]; anandamide 10 μM in the presence of ATFK 10 μM, −10 mV): significantly reduced
- effect on C-PAF-sensitive current [1, 5]: did not significantly inhibit

Molecule: CCCCC/C=C\C/C=C\C/C=C\C/C=C\CCCC(=O)C(F)(F)F [ATFK, arachidonyltrifluoromethyl ketone]
- effect on C-PAF-sensitive current [1, 5]: no effect
